Measurements: US12403326B2, “System for corneal cross-linking and correcting vision by using LED contact lens and eye dye” (PHI BIOMED INC., priority 2019, dated 2025)

Key:
bovine cornea [1] = test: Corneal permeability by two-photon image analysis; format: in vitro ADME; details: dropped on bovine cornea at 5-minute intervals for 30 minutes; two-photon imaging
Protocol: The hyaluronic acid-Rose Bengal conjugate synthesized in Example 1 was dropped on the bovine cornea at 5-minute intervals for 30 minutes. As a comparative group, a pure Rose Bengal solution was dropped in the same manner as described above.
Afterward, two-photon image analysis was performed by extracting the cornea from the bovine cornea.

bovine cornea [2] = test: Corneal bonding of wounded cornea, intraocular pressure by tonometer after 532-nm laser; details: wounded bovine eye; dropped at 5-minute intervals for 30 minutes, 532-nm laser for 30 minutes
Protocol: After approximately […] wound was made in the bovine cornea, the pressure in the bovine eye was measured using a tonometer. Afterward, each of a hyaluronic acid-Rose Bengal conjugate solution and a Rose Bengal solution was dropped on the wound-induced region at 5-minute intervals for 30 minutes, and a 532-nm laser was irradiated for 30 minutes to induce crosslinking between corneal collagen to bond. Likewise, an intraocular pressure was measured after bonding by a laser using a tonometer.
By comparing the intraocular pressure before and after bonding, it was confirmed whether bonding was formed.

bovine cornea [3] = test: Corneal thickness from H&E stained corneal tissue after collagen crosslinking; details: decreased from 1000 μm; dropped for 30 minutes, 532-nm laser for 30 minutes; H&E images
Protocol: (§1) Hyaluronic acid or a hyaluronic acid-Rose Bengal conjugate were dropped on the bovine cornea at 5-minute intervals for 30 minutes, and a 532-nm laser was irradiated for 30 minutes to induce crosslinking between corneal collagen. Afterward, corneal tissue was fixed with formalin, and stained with H&E, followed by observation under a microscope.

bovine cornea [4] = test: Corneal strength, Young's modulus using Instron equipment; details: bovine cornea after collagen crosslinking; untreated Control 1.76
Protocol: as §1
In addition, the bovine cornea in which collagen crosslinking was induced was extracted, and then the Young's modulus of the cornea was measured using Instron equipment to analyze the strength of the cornea.

O=C([O-])c1c(Cl)c(Cl)c(Cl)c(Cl)c1-c1c2cc(I)c(=O)c(I)c-2oc2c(I)c([O-])c(I)cc12.[Na+].[Na+] [Rose Bengal]
depth up to which fluorescence was shown in the cornea (corneal permeability) (bovine cornea [1]): 400 μm
increase in maximum intraocular pressure compared to not treated (bovine cornea [2]): approximately two
corneal thickness after treatment (bovine cornea [3]): 750 μm
Young's modulus of the cornea (bovine cornea [4]): 2.75
